From US9079887B2, “Antiviral compounds” (priority 2012, dated 2015)
Read-outs that look alike come from different tables or passages of the source.

Columns and labels:
Assay type in all cases: cell-based
[1] = system: stable HCV 3a RLuc replicon cells (genotype 3a S52 replicon); assay: HCV replicon assay, genotype 3a (stable); settings: Hepatitis C virus
Description: (§1) Antiviral potency (EC50) was determined using a Renilla luciferase (RLuc)-based HCV replicon reporter assay. To perform the assay for genotype 1 and 2a JFH-1, stable HCV 1a RLuc replicon cells (harboring a dicistronic genotype 1a H77 replicon that encodes a RLuc reporter), stable HCV 1b RLuc replicon cells (harboring a dicistronic genotype 1b Con1 replicon that encodes a RLuc reporter), or stable HCV 2a JFH-1 Rluc replicon cells (harboring a dicistronic genotype 2a JFH-1 replicon that encodes a RLuc reporter; with L31 present in NS5A) were dispensed into 384-well plates for EC50 assays. To perform the assay for genotype 2a (with M31 present in NS5A) or 2b, NS5A chimeric genotype 2a JFH-1 replicons that encodes a RLuc-Neo reporter and either genotype 2a J6 strain NS5A gene or genotype 2b MD2b-1 strain NS5A gene (both with M31 present) respectively, were either transiently transfected (t) into Huh-Lunet cells or were established as stably replicating replicon cells (s). Either cells were dispensed into 384-well plates for EC50 assays. To perform the assay for genotype 3 and 4, NS5A chimeric genotype 1b Con1 replicons that encodes a Pi-RLuc reporter and either genotype 3a S52 strain NS5A gene or genotype 4a ED43 strain NS5A gene respectively, were transiently transfected (t) into Huh-Lunet cells, which were subsequently dispensed into 384-well plates. Alternatively, stable HCV 3a RLuc replicon cells (s) (harboring a dicistronic genotype 3a S52 replicon that encodes an RLuc reporter), or stable HCV 4a RLuc replicon cells (s) (harboring a dicistronic genotype 4a ED43 replicon that encodes a RLuc reporter) were established in Huh-7-derived cells and dispensed into 384-well plates for EC50 assays. Compounds were dissolved in DMSO at a concentration of 10 mM and diluted in DMSO either manually or using an automated pipeting instrument. Serially 3-fold diluted compounds were either manually mixed with cell culture media and added to the seeded cells or directly added to the cells using an automated instrument. DMSO was used as a negative (solvent; no inhibition) control, and the protease inhibitor ITMN-191 was included at a concentration >100×EC50 as a positive control. 72 hours later, cells were lysed and Renilla luciferase activity quantified as recommended by the manufacturer (Promega-Madison, Wis.). Non-linear regression was performed to calculate EC50 values.

[2] = system: stable HCV 2a JFH-1 Rluc replicon cells (L31 present in NS5A); assay: HCV replicon RLuc reporter assay, genotype 2a JFH-1; settings: Hepatitis C virus
Description: as §1

[3] = system: stable HCV 1b RLuc replicon cells (genotype 1b Con1 replicon); assay: HCV replicon RLuc reporter assay, genotype 1b; settings: Hepatitis C virus; genotype 1b replicon, 72 hours
Description: as §1

[4] = system: stable HCV 4a RLuc replicon cells (genotype 4a ED43 replicon); assay: HCV replicon assay, genotype 4a (stable); settings: Hepatitis C virus
Description: as §1

[5] = system: stable HCV 1a RLuc replicon cells (genotype 1a H77 replicon); assay: HCV replicon RLuc reporter assay, genotype 1a; settings: Hepatitis C virus, genotype 1a replicon
Description: as §1

[6] = HCV replicon assay, genotype 2b (stable); settings: Hepatitis C virus, genotype 2a / genotype 2b
Description: as §1

[7] = HCV replicon assay, genotype 2a J6 (transient); settings: Hepatitis C virus
Description: as §1

| Structure (SMILES) | EC50 ([1]; read-out: 3a (s)) | EC50 ([1]; read-out: 3a (s) (nM)) | EC50 ([2]; read-out: 2a JFH) | EC50 ([2]; read-out: 2a JFH (nM)) | EC50 [3] | EC50 ([4]; read-out: 4a (s)) | EC50 ([4]; read-out: 4a (s) (nM)) | EC50 [5] | EC50 ([5]; activity range) | EC50 ([6]; 2BS, read-out: 2b (s)) | EC50 ([6]; read-out: 2b (s) (nM)) | EC50 ([7]; read-out: 2a J6 (t)) | EC50 ([7]; read-out: 2a J6 (t) (nM)) |
| --- | --- | --- | --- | --- | --- | --- | --- | --- | --- | --- | --- | --- | --- |
| COC[C@H]1C[C@@H](c2ncc(-c3ccc(-c4ccc(-c5[nH]c([C@@H]6CC[C@H](C)N6C(=O)[C@@H](NC(=O)OC)C(C)C)nc5Cl)cc4)cc3)[nH]2)N(C(=O)[C@@H](NC(=O)OC)C(C)C)C1 [AH, Methyl (S)-1-((2S,4S)-2-(5-(4′-(4-chloro-2-((2S,4S)-1-((R)-2-(methoxycarbonylamino)-3-methylbutanoyl)-5-methylpyrrolidin-2-yl)-1H-imidazol-5-yl)biphenyl-4-yl)-1H-imidazol-2-yl)-4-(methoxymethyl)pyrrolidin-1-yl)-3-methyl-1-oxobutan-2-ylcarbamate] | 1 to 44 nM | 36.5 nM | < 0.1 nM | 0.066 nM | 40 pM | < 0.1 nM | 0.02 nM | 37 pM | < 100 pM | 1 to 44 nM | 7.3 nM |  |  |
| COC[C@H]1C[C@@H](c2nc(Cl)c(-c3ccc(-c4ccc(-c5[nH]c([C@@H]6CC[C@H](C)N6C(=O)[C@@H](NC(=O)OC)C(C)C)nc5Cl)cc4)cc3)[nH]2)N(C(=O)[C@@H](NC(=O)OC)C(C)C)C1 [Example AG, Methyl (S)-1-((2S,4S)-2-(4-chloro-5-(4′-(4-chloro-2-((2S,4S)-1-((R)-2-(methoxycarbonylamino)-3-methylbutanoyl)-5-methylpyrrolidin-2-yl)-1H-imidazol-5-yl)biphenyl-4-yl)-1H-imidazol-2-yl)-4-(methoxymethyl)pyrrolidin-1-yl)-3-methyl-1-oxobutan-2-ylcarbamate] | 1 to 44 nM | 17.6 nM | < 0.1 nM | 0.05 nM | 19 pM | < 0.1 nM | 0.011 nM | 22 pM | < 100 pM | 1 to 44 nM | 2.56 nM |  |  |
| COC[C@H]1C[C@@H](c2nc(Cl)c(-c3ccc(-c4ccc(-c5cnc([C@@H]6CC[C@H](C)N6C(=O)[C@@H](NC(=O)OC)C(C)C)[nH]5)cc4)cc3)[nH]2)N(C(=O)[C@@H](NC(=O)OC)C(C)C)C1 [AI, Methyl (S)-1-((2S,4S)-2-(4-chloro-5-(4′-(2-((2S,4S)-1-((R)-2-(methoxycarbonylamino)-3-methylbutanoyl)-5-methylpyrrolidin-2-yl)-1H-imidazol-5-yl)biphenyl-4-yl)-1H-imidazol-2-yl)-4-(methoxymethyl)pyrrolidin-1-yl)-3-methyl-1-oxobutan-2-ylcarbamate] | 1 to 44 nM | 40.8 nM | < 0.1 nM | 0.075 nM | 28 pM | < 0.1 nM | 0.018 nM | 34 pM | < 100 pM | 1 to 44 nM | 5.08 nM |  |  |
| COC[C@H]1C[C@@H](c2ncc(-c3ccc(-c4ccc(-c5cnc([C@@H]6CC[C@H](C)N6C(=O)[C@@H](NC(=O)OC)C6CCOCC6)[nH]5)cc4)cc3)[nH]2)N(C(=O)[C@@H](NC(=O)OC)C(C)C)C1 [Example AL, Methyl {(2S)-1-[(2S,4S)-2-{5-[4′-(2-{(2S,5S)-1-[(2S)-2-[(methoxycarbonyl)amino]-2-(tetrahydro-2H-pyran-4-yl)acetyl]-5-methylpyrrolidin-2-yl}-1H-imidazol-5-yl)biphenyl-4-yl]-1H-imidazol-2-yl}-4-(methoxymethyl)pyrrolidin-1-yl]-3-methyl-1-oxobutan-2-yl}carbamate] | 1 to 44 nM | 2.14 nM | < 0.1 nM | 0.035 nM | 74 pM | < 0.1 nM | 0.04 nM | 52 pM | < 100 pM | 1 to 44 nM | 2.17 nM | < 0.1 nM | 0.084 nM |
| COC[C@H]1C[C@@H](c2ncc(-c3ccc(-c4ccc(-c5cnc([C@@H]6CC[C@H](C)N6C(=O)[C@@H](NC(=O)OC)C6CCOCC6)[nH]5)cc4)cc3)[nH]2)N(C(=O)[C@@H](NC(=O)OC)C2CCOCC2)C1 [Example AJ, Methyl [(1S)-2-{(2S,5S)-2-[5-(4′-{2-[(2S,4S)-1-[(2S)-2-[(methoxycarbonyl)amino]-2-(tetrahydro-2H-pyran-4-yl)acetyl]-4-(methoxymethyl)pyrrolidin-2-yl]-1H-imidazol-5-yl}biphenyl-4-yl)-1H-imidazol-2-yl]-5-methylpyrrolidin-1-yl}-2-oxo-1-(tetrahydro-2H-pyran-4-yl)ethyl]carbamate] | 1 to 44 nM | 1.34 nM | < 0.1 nM | 0.079 nM | 384 pM | 0.1 to 0.999 nM | 0.133 nM | 186 pM | 100 to 999 pM | 0.1 to 0.999 nM | 0.672 nM | 0.1 to 0.999 nM | 0.155 nM |
| COC[C@H]1C[C@@H](c2ncc(-c3ccc(-c4ccc(-c5cnc([C@@H]6CC[C@H](C)N6C(=O)[C@@H](NC(=O)OC)C(C)C)[nH]5)cc4)cc3)[nH]2)N(C(=O)[C@@H](NC(=O)OC)C2CCOCC2)C1 [Example AN, Methyl [(1S)-2-[(2S,4S)-2-[5-(4′-{2-[(2S,5S)-1-{(2S)-2-[(methoxycarbonyl)-amino]-3-methylbutanoyl}-5-methylpyrrolidin-2-yl]-1H-imidazol-5-yl}biphenyl-4-yl)-1H-imidazol-2-yl]-4-(methoxymethyl)pyrrolidin-1-yl]-2-oxo-1-(tetrahydro-2H-pyran-4-yl)ethyl]carbamate] | 1 to 44 nM | 2.19 nM | < 0.1 nM | 0.027 nM | 65 pM | < 0.1 nM | 0.035 nM | 37 pM | < 100 pM | 1 to 44 nM | 2.14 nM | 0.1 to 0.999 nM | 0.207 nM |
